Structures can show the parent of a compound that is named as a salt.

T1 sequence (Q9HBA0 whole entry): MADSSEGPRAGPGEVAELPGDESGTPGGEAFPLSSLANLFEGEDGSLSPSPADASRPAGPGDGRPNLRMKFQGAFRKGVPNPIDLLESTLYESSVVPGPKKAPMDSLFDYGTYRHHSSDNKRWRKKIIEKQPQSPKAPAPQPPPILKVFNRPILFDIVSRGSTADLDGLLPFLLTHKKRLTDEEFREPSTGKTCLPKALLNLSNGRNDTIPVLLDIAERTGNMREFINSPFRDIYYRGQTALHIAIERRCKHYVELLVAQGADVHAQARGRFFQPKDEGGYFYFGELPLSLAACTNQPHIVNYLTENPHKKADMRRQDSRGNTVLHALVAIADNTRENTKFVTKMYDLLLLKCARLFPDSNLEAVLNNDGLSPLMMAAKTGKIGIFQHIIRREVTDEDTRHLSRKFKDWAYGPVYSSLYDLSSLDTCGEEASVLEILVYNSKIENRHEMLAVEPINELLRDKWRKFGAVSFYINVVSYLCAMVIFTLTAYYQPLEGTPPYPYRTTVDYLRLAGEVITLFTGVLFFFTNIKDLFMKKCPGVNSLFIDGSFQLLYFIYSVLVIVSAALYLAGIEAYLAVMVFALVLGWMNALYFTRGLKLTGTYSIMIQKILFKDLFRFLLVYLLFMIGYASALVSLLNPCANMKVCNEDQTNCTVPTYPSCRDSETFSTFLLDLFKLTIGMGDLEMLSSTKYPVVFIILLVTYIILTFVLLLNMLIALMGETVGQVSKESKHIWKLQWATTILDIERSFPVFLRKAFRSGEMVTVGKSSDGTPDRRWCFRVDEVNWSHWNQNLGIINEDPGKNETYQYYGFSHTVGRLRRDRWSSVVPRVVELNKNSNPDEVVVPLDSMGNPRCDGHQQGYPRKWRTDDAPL

The experiment addresses T1, human TRPV4 (Homo sapiens, UniProt Q9HBA0).
T1 construct: expressed in transfected cells; host or cells: BHK/AC9 cells transduced with BacMam virus
The experiment can be described thus: FLIPR assay for hTRPV4 expressed in BHK cells: inhibition of Agonist Compound-induced calcium signal. The following applies: hTRPV4 in BHK/AC9 cells, FLIPR calcium signal, agonist at EC80; reported as range class; read-out: IC50. In kind it is cell-based. In outline:
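BHK/AC9 cells transduced with BacMam human TRPV4 (MOI 78), plated 15,000 per well and cultured 24 h at 37° C. Loaded with 2 μM Fluo-4 AM plus 500 μM Brilliant Black in HBSS for 1-1.5 h at room temperature in the dark; intracellular calcium signal read by FLIPR fluorescence.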
In general, IC50 refers to the concentration needed to halve the response being measured. `N#Cc1ccc(O[C@H]2CN(S(=O)(=O)c3ccccc3C#N)C[C@@]2(O)CO)c(OCC(F)(F)F)c1` [Example 185, 4-(((3S,4R)-1-((2-cyanophenyl)sulfonyl)-4-hydroxy-4-(hydroxymethyl)pyrrolidin-3-yl)oxy)-3-(2,2,2-trifluoroethoxy) benzonitrile]: the IC50 lay in the range of 0.1 to 10 nM.
`N#Cc1cc(C(F)(F)F)ccc1S(=O)(=O)N1C[C@H](Oc2ccc(C(F)(F)F)nc2)[C@](O)(CO)C1` [Example 42, 2-(((3R,4S)-3-hydroxy-3-(hydroxymethyl)-4-((6-(trifluoromethyl)pyridin-3-yl)oxy)pyrrolidin-1-yl)sulfonyl)-5-(trifluoromethyl)benzonitrile]: the 50% inhibitory concentration (IC50) lay within 10 to 100 nM.
As for `N#Cc1cc(OCC(F)(F)F)c(O[C@H]2CN(S(=O)(=O)c3ccc(Cl)cc3Cl)C[C@@]2(O)CO)cc1F` [Example 177, 4-(((3S,4R)-1-((2,4-dichlorophenyl)sulfonyl)-4-hydroxy-4-(hydroxymethyl)pyrrolidin-3-yl)oxy)-2-fluoro-5-(2,2,2-trifluoroethoxy) benzonitrile], the IC50 lay within 0.1 to 10 nM.
As for `O=S(=O)(c1ccc(C(F)(F)F)cc1F)N1C[C@H](Oc2ccc3nonc3c2)[C@](O)(CO)C1` [Example 125, (3R,4S)-4-(benzo[c][1,2,5]oxadiazol-5-yloxy)-1-((2-fluoro-4-(trifluoromethyl)phenyl)sulfonyl)-3-(hydroxymethyl)pyrrolidin-3-ol], the IC50 was 10 to 100 nM.
Take `N#Cc1ccc(O[C@H]2CN(S(=O)(=O)c3ccc(Cl)cc3)C[C@@]2(O)CO)cc1F` [Example 101, 4-(((3S,4R)-1-((4-chlorophenyl)sulfonyl)-4-hydroxy-4-(hydroxymethyl)pyrrolidin-3-yl)oxy)-2-fluorobenzonitrile]: the IC50 fell in the range of 10 to 100 nM.
For `N#Cc1ccc(O[C@H]2CN(S(=O)(=O)c3ccc(Cl)cc3Cl)C[C@@]2(O)CO)cn1` [Example 73, 5-(((3S,4R)-1-((2,4-dichlorophenyl)sulfonyl)-4-hydroxy-4-(hydroxymethyl)pyrrolidin-3-yl)oxy)picolinonitrile], the IC50 lay in the range of 10 to 100 nM.
With `N#Cc1ccc(O[C@H]2CN(S(=O)(=O)c3ccc(I)cn3)C[C@@]2(O)CN)cc1F` [Example 250, 4-(((3S,4S)-4-(aminomethyl)-4-hydroxy-1-((5-iodopyridin-2-yl)sulfonyl)pyrrolidin-3-yl)oxy)-2-fluorobenzonitrile, 2,2,2-trifluoroacetate], the IC50 is 0.1 to 10 nM.
Regarding `COc1ccc(S(=O)(=O)N2C[C@H](Oc3ccc(C#N)c(F)c3)[C@@](O)(CO)C2)c(C#N)c1` [Example 145, 4-(((3S,4S)-1-((2-cyano-4-methoxyphenyl)sulfonyl)-4-hydroxy-4-(hydroxymethyl)pyrrolidin-3-yl)oxy)-2-fluorobenzonitrile], the IC50 lay in the range of 10 to 100 nM.
As to `N#Cc1ccc(S(=O)(=O)N2C[C@H](Oc3ccc(C#N)c(F)c3)[C@](O)(CO)C2)cn1` [Example 79, 5-(((3R,4S)-4-(4-cyano-3-fluorophenoxy)-3-hydroxy-3-(hydroxymethyl)pyrrolidin-1-yl)sulfonyl)picolinonitrile], the IC50 was in the range of 10 to 100 nM.
Regarding `N#Cc1ccc(O[C@H]2CN(S(=O)(=O)c3ccc(C(F)(F)F)cc3C#N)C[C@@]2(O)CO)cc1OC(F)(F)F` [Example 21, 4-(((3S,4R)-1-((2-cyano-4-(trifluoromethyl)phenyl)sulfonyl)-4-hydroxy-4-(hydroxymethyl)pyrrolidin-3-yl)oxy)-2-(trifluoromethoxy)benzonitrile], the IC50 is 10 to 100 nM.
Consider `COc1ccc(S(=O)(=O)N2C[C@H](Oc3ccc(C#N)c(F)c3)[C@](O)(CO)C2)c(Br)c1` [Example 64, 4-(((3S,4R)-1-((2-bromo-4-methoxyphenyl)sulfonyl)-4-hydroxy-4-(hydroxymethyl)pyrrolidin-3-yl)oxy)-2-fluorobenzonitrile], for which the IC50 lay in the range of 10 to 100 nM.
For `N#Cc1ccc(O[C@H]2CN(S(=O)(=O)c3ccc(OC(F)F)cn3)C[C@@]2(O)CN)cc1F` [Example 247, 4-(((3S,4S)-4-(aminomethyl)-1-((5-(difluoromethoxy)pyridin-2-yl)sulfonyl)-4-hydroxypyrrolidin-3-yl)oxy)-2-fluorobenzonitrile, 2,2,2-trifluoroacetate], the IC50 lay within 10 to 100 nM.
To `COC(=O)c1cc(C#N)ccc1O[C@H]1CN(S(=O)(=O)c2ccc(C(F)(F)F)cc2C#N)C[C@@]1(O)CO` [Example 34, methyl 5-cyano-2-(((3S,4R)-1-((2-cyano-4-(trifluoromethyl)phenyl)sulfonyl)-4-hydroxy-4-(hydroxymethyl)pyrrolidin-3-yl)oxy)benzoate] belongs 0.1 to 10 nM.
Regarding `N#Cc1ccc(O[C@H]2CN(S(=O)(=O)c3ccccc3Cl)C[C@@]2(O)CO)cc1F` [Example 85, 4-(((3S,4R)-1-((2-chlorophenyl)sulfonyl)-4-hydroxy-4-(hydroxymethyl)pyrrolidin-3-yl)oxy)-2-fluorobenzonitrile], the IC50 lay in the range of 10 to 100 nM.
On to `N#Cc1ccc(O[C@H]2CN(S(=O)(=O)c3ccc(-c4ccccc4)cc3C#N)C[C@@]2(O)CO)cc1F` [Example 218, 4-(((3R,4S)-4-(4-cyano-3-fluorophenoxy)-3-hydroxy-3-(hydroxymethyl)pyrrolidin-1-yl)sulfonyl)-[1,1′-biphenyl]-3-carbonitrile], for which the IC50 fell in the range of 10 to 100 nM.
In the case of `N#Cc1ccc(S(=O)(=O)N2C[C@H](Oc3ccc(Cl)cc3)[C@](O)(CO)C2)c(Br)c1` [Example 108, 3-bromo-4-(((3R,4S)-4-(4-chlorophenoxy)-3-hydroxy-3-(hydroxymethyl)pyrrolidin-1-yl)sulfonyl)benzonitrile], the IC50 lay within 0.1 to 10 nM.
`N#Cc1ccccc1S(=O)(=O)N1C[C@H](Oc2ccc(Cl)cc2)[C@](O)(CO)C1` [Example 107, 2-(((3R,4S)-4-(4-chlorophenoxy)-3-hydroxy-3-(hydroxymethyl)pyrrolidin-1-yl)sulfonyl)benzonitrile]: the IC50 was in the range of 10 to 100 nM.
To `Cc1cc(C#N)ccc1O[C@H]1CN(S(=O)(=O)c2ccc(C(F)(F)F)cc2C#N)C[C@@]1(O)CO` [Example 16, 2-(((3R,4S)-4-(4-cyano-2-methylphenoxy)-3-hydroxy-3-(hydroxymethyl)pyrrolidin-1-yl)sulfonyl)-5-(trifluoromethyl)benzonitrile] belongs 0.1 to 10 nM.
For `N#Cc1ccc(O[C@H]2CN(S(=O)(=O)c3ccc(Cl)cn3)C[C@]2(O)CN)cc1F` [Example 234, 4-(((3S,4R)-4-(aminomethyl)-1-((5-chloropyridin-2-yl)sulfonyl)-4-hydroxypyrrolidin-3-yl)oxy)-2-fluorobenzonitrile, Hydrochloride], the IC50 was in the range of 10 to 100 nM.
As to `CC#Cc1ccc(S(=O)(=O)N2C[C@H](Oc3ccc(C#N)c(F)c3)[C@](O)(CO)C2)nc1` [Example 227, 2-fluoro-4-(((3S,4R)-4-hydroxy-4-(hydroxymethyl)-1-((5-(prop-1-yn-1-yl)pyridin-2-yl)sulfonyl)pyrrolidin-3-yl)oxy)benzonitrile], the IC50 lay within 0.1 to 10 nM.
As to `N#Cc1cc(C(F)(F)F)ccc1S(=O)(=O)N1C[C@H](Oc2cc(F)c(F)c(F)c2)[C@](O)(CO)C1` [Example 26, 2-(((3R,4S)-3-hydroxy-3-(hydroxymethyl)-4-(3,4,5-trifluorophenoxy)pyrrolidin-1-yl)sulfonyl)-5-(trifluoromethyl)benzonitrile], the IC50 is 10 to 100 nM.
With `CCCOc1cc(C#N)c(F)cc1O[C@H]1CN(S(=O)(=O)c2ccc(C(F)(F)F)cc2C#N)C[C@@]1(O)CO` [Example 160, 4-(((3S,4R)-1-((2-cyano-4-(trifluoromethyl)phenyl)sulfonyl)-4-hydroxy-4-(hydroxymethyl)pyrrolidin-3-yl)oxy)-2-fluoro-5-propoxybenzonitrile] the figure was 0.1 to 10 nM; with `CC(C)(C)C#Cc1ccc(S(=O)(=O)N2C[C@H](Oc3ccc(C#N)c(F)c3)[C@](O)(CO)C2)nc1` [Example 229, 4-(((3S,4R)-1-((5-(3,3-dimethylbut-1-yn-1-yl)pyridin-2-yl)sulfonyl)-4-hydroxy-4-(hydroxymethyl)pyrrolidin-3-yl)oxy)-2-fluorobenzonitrile], 10 to 100 nM.
Turning to `N#Cc1cc(C(F)(F)F)ccc1S(=O)(=O)N1C[C@H](Oc2ccc(OC(F)(F)F)c(F)c2)[C@](O)(CO)C1` [Example 40, 2-(((3R,4S)-4-(3-fluoro-4-(trifluoromethoxy)phenoxy)-3-hydroxy-3-(hydroxymethyl)pyrrolidin-1-yl)sulfonyl)-5-(trifluoromethyl)benzonitrile], the IC50 lay in the range of 0.1 to 10 nM.
In the case of `Cn1ncc(Cl)c1S(=O)(=O)N1C[C@H](Oc2ccc(C#N)c(F)c2)[C@](O)(CO)C1` [Example 89, 4-(((3S,4R)-1-((4-chloro-1-methyl-1H-pyrazol-5-yl)sulfonyl)-4-hydroxy-4-(hydroxymethyl)pyrrolidin-3-yl)oxy)-2-fluorobenzonitrile], the IC50 was 10 to 100 nM.
With `N#Cc1cc(C(F)(F)F)ccc1S(=O)(=O)N1C[C@H](Oc2ccc(Cl)cc2)[C@@](O)(CO)C1` [Example 146, 2-(((3S,4S)-4-(4-chlorophenoxy)-3-hydroxy-3-(hydroxymethyl)pyrrolidin-1-yl)sulfonyl)-5-(trifluoromethyl)benzonitrile] the figure was 10 to 100 nM.
To `CC(C)COc1cc(C#N)c(F)cc1O[C@H]1CN(S(=O)(=O)c2ccc(C(F)(F)F)cc2C#N)C[C@@]1(O)CO` [Example 165, 4-(((3S,4R)-1-((2-cyano-4-(trifluoromethyl)phenyl)sulfonyl)-4-hydroxy-4-(hydroxymethyl)pyrrolidin-3-yl)oxy)-2-fluoro-5-isobutoxybenzonitrile] belongs 0.1 to 10 nM; to `N#Cc1ccc(O[C@H]2CN(S(=O)(=O)c3cccc(OC(F)(F)F)n3)C[C@@]2(O)CO)cc1F` [Example 132, 2-fluoro-4-(((3S,4R)-4-hydroxy-4-(hydroxymethyl)-1-((6-(trifluoromethoxy)pyridin-2-yl)sulfonyl)pyrrolidin-3-yl)oxy)benzonitrile], 10 to 100 nM.

For the origin of these results see patent publication US11229623B2 (GlaxoSmithKline Intellectual Property (No.2) Limited, priority 2016, dated 2022).
